Experimental data reported in US20250230193A1, “CYCLIC COMPOUND HAVING SELECTIVE KRAS INHIBITORY EFFECT ON HRAS AND NRAS” (CHUGAI SEIYAKU KABUSHIKI KAISHA, priority 2022, published 2025).

How the values were obtained:
[1] = target: GDP-bound HRAS wild-type protein (Homo sapiens, UniProt P01112); assay: Binding to HRAS by surface plasmon resonance (SPR), Single Cycle Kinetics
[2] = target: GDP-bound NRAS wild-type protein (Homo sapiens, UniProt P01111); assay: Binding to NRAS by surface plasmon resonance (SPR), Single Cycle Kinetics
[3] = KD ratio, GDP-bound HRAS wild-type vs GDP-bound KRAS wild-type, SPR
[4] = KD ratio, GDP-bound NRAS wild-type vs GDP-bound KRAS wild-type, SPR
[5] = SPR, GDP-bound wild-type proteins

GDP-bound NRAS wild-type protein, sequence (P01111 whole entry): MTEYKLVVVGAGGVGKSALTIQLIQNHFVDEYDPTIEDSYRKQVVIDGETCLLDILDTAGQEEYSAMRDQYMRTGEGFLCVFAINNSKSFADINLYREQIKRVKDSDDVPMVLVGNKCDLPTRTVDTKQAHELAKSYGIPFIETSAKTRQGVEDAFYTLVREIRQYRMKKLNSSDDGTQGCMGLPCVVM
GDP-bound HRAS wild-type protein, sequence (P01112 whole entry): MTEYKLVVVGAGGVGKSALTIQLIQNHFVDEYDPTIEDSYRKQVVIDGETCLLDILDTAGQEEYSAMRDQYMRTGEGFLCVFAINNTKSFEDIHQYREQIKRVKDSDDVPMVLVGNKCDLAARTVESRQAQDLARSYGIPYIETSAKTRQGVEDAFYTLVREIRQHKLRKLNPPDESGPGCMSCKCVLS

Structure (SMILES): CCO[C@@H]1C[C@H]2C(=O)NC3(CCC3)C(=O)N(C)[C@@H](C(CC)CC)C(=O)N(C)[C@H](C(=O)N(C)C)CC(=O)N(C)[C@@H](C)C(=O)N[C@@H]([C@@H](C)CC)C(=O)N(C)CC(=O)N(C)[C@H]3C/C=C\CCN(C3=O)[C@@H](Cc3ccc(C(F)(F)F)cc3)C(=O)N(C)CC(=O)N[C@@H](CCc3cc(F)c(C(F)(F)F)c(F)c3)C(=O)N2C1 [PP1199]
- HRAS/KRAS (ratio of KD value with respect to HRAS to KD value with respect to KRAS) [1, 3]: A (a compound having 10 or more and less than 20 is denoted as A)
- NRAS/KRAS (ratio of KD value with respect to NRAS to KD value with respect to KRAS) [2, 4]: A (a compound having 10 or more and less than 20 is denoted as A)

Structure (SMILES): CCC[C@H]1C(=O)N[C@@H]([C@@H](C)CC)C(=O)N(C)CC(=O)N(C)[C@H]2C/C=C\CCN(C2=O)[C@@H](Cc2ccc(C)cc2)C(=O)N(C)CC(=O)N[C@@H](CCc2cc(F)c(C(F)(F)F)c(F)c2)C(=O)N2C[C@H](OCC)C[C@H]2C(=O)NC2(CC(C)(C)C2)C(=O)N(C)[C@@H](CC(F)(F)F)C(=O)N(C)[C@H](C(=O)N(C)C)CC(=O)N1C [PP2993]
- HRAS/KRAS (ratio of KD value with respect to GDP-bound HRAS wild-type protein to KD value with respect to KRAS) [1, 5]: A (a compound having 10 or more and less than 20 is denoted as A)
- NRAS/KRAS (ratio of KD value with respect to GDP-bound NRAS wild-type protein to KD value with respect to KRAS) [2, 5]: A (a compound having 10 or more and less than 20 is denoted as A)

Structure (SMILES): CCO[C@@H]1C[C@H]2C(=O)NC3(CC(C)(C)C3)C(=O)N(C)[C@@H](C3CCCC3)C(=O)N(CC)[C@H](C(=O)N(C)C)CC(=O)N(C)[C@@H](CC)C(=O)N[C@@H]([C@@H](C)CC)C(=O)N(C)CC(=O)N(C)[C@H]3C/C=C\CCN(C3=O)[C@@H](Cc3ccc(C(F)(F)F)cc3)C(=O)N(C)CC(=O)N[C@@H](CCc3cc(F)c(C(F)(F)F)c(F)c3)C(=O)N2C1 [PP1768]
- HRAS/KRAS (ratio of KD value for HRAS to KD value for KRAS) [1, 3]: A (a compound having 10 or more and less than 20 is denoted as A)
- NRAS/KRAS (ratio of KD value for NRAS to KD value for KRAS) [2, 4]: A (a compound having 10 or more and less than 20 is denoted as A)

Structure (SMILES): CCO[C@@H]1C[C@H]2C(=O)NC3(CCC3)C(=O)N(C)[C@@H](C3CCCC3)C(=O)N(C)[C@H](C(=O)N(C)C)CC(=O)N(C)[C@@H](CCOC)C(=O)N[C@@H]([C@@H](C)CC)C(=O)N(C)CC(=O)N(C)[C@H]3CCCCCN(C3=O)[C@@H](Cc3ccc(F)cc3)C(=O)N(C)CC(=O)N[C@@H](CCc3cc(F)c(C(F)(F)F)c(F)c3)C(=O)N2C1 [PP1194]
- HRAS/KRAS (ratio of KD value with respect to HRAS to KD value with respect to KRAS) [1, 3]: B (a compound having 3 or more and less than 10 is denoted as B)
- NRAS/KRAS (ratio of KD value with respect to NRAS to KD value with respect to KRAS) [2, 4]: B (a compound having 3 or more and less than 10 is denoted as B)

Structure (SMILES): CCO[C@@H]1C[C@H]2C(=O)NC3(CCC3)C(=O)N(C)[C@@H](C3CCCC3)C(=O)N(C)[C@H](C(=O)N(C)C)CC(=O)N(C)[C@@H](CC3CCCC3)C(=O)N[C@@H]([C@@H](C)CC)C(=O)N(C)CC(=O)N(C)[C@H]3C/C=C\CCN(C3=O)[C@@H](Cc3ccc(C)cc3)C(=O)N(C)CC(=O)N[C@@H](CCc3cc(C)c(C(F)F)c(Cl)c3)C(=O)N2C1 [PP2677]
- HRAS/KRAS (ratio of KD value with respect to GDP-bound HRAS wild-type protein to KD value with respect to KRAS) ([1]; class symbols): A (a compound having 10 or more and less than 20 is denoted as A)
- NRAS/KRAS (ratio of KD value with respect to GDP-bound NRAS wild-type protein to KD value with respect to KRAS) ([2]; class symbols): A (a compound having 10 or more and less than 20 is denoted as A)

Structure (SMILES): CC[C@H](C)[C@@H]1NC(=O)[C@H](C)N(C)C(=O)C[C@@H](C(=O)N(C)C)N(C)C(=O)[C@H](C2CCCC2)N(C)C(=O)C2(CCC2)NC(=O)[C@@H]2CCCN2C(=O)[C@H](CCc2cc(F)c(C(F)(F)F)c(F)c2)NC(=O)CN(C)C(=O)[C@H](Cc2ccc(C(F)(F)F)cc2)N2CCCCC[C@@H](C2=O)N(C)C(=O)CN(C)C1=O [PP0470]
- HRAS/KRAS (ratio of KD value with respect to GDP-bound HRAS wild-type protein to KD value with respect to KRAS) ([1]; SPR): B (a compound having 3 or more and less than 10 is denoted as B)
- NRAS/KRAS (ratio of KD value with respect to GDP-bound NRAS wild-type protein to KD value with respect to KRAS) ([2]; SPR): B (a compound having 3 or more and less than 10 is denoted as B)

Structure (SMILES): CCO[C@@H]1C[C@H]2C(=O)NC3(CC(C)(C)C3)C(=O)N(C)[C@@H](C(CC)CC)C(=O)N(C)[C@H](C(=O)N(C)C)CC(=O)N(C)[C@@H](CC(C)C)C(=O)N[C@@H]([C@@H](C)CC)C(=O)N(C)CC(=O)N(C)[C@H]3C/C=C\CCN(C3=O)[C@@H](Cc3ccc(C(F)(F)F)cc3)C(=O)N(C)CC(=O)N[C@@H](CCc3ccc(C(F)(F)F)c(OC)c3)C(=O)N2C1 [PP2161]
- HRAS/KRAS (ratio of KD value with respect to HRAS to KD value with respect to KRAS) ([1]; SPR, GDP-bound HRAS wild-type vs GDP-bound KRAS wild-type): A (a compound having 10 or more and less than 20 is denoted as A)
- NRAS/KRAS (ratio of KD value with respect to NRAS to KD value with respect to KRAS) ([2]; SPR, GDP-bound NRAS wild-type vs GDP-bound KRAS wild-type): AA (a compound having 20 or more is denoted as AA)
